Assay [1] concerns the target Group IIA secretory phospholipase A2 (Homo sapiens). In words: Compound was measured for the inhibitory activity against secretory-phospholipase A2 (s-PLA2).
Assay [2] has the same target. The experiment in a line: Compound was measured for the inhibitory activity against Secretory phospholipase A 2 (s-PLA2).

As to `CCCCCCCCCCCCCCCCCCOP(=O)(O)c1cccc2ccc(C(=O)O)cc12` [8-(Hydroxy-octadecyloxy-phosphoryl)-naphthalene-2-carboxylic acid], the IC50 in assay [1] came to 3.9 µM.
In assay [2], `CCCCCCCOc1ccc(C(=O)O)cc1CC(=O)C(F)(F)F` [4-Heptyloxy-3-(3,3,3-trifluoro-2-oxo-propyl)-benzoic acid] had an IC50 of 1.7 µM.
On the same count and under the same terms, in the case of `O=C(O)c1ccc2cccc(C(=O)C(F)(F)F)c2c1` [8-(2,2,2-Trifluoro-acetyl)-naphthalene-2-carboxylic acid] it was 2.4 µM.
Take `CCCCCCCCOP(=O)(O)c1cccc2ccc(C(=O)O)cc12` [8-(Hydroxy-octyloxy-phosphoryl)-naphthalene-2-carboxylic acid]: the half-maximal inhibitory concentration (IC50) in assay [2] is > 200 µM.
Same read-out and setting: the result for `CCCCCCCCCCOP(=O)(O)c1cc(OCc2ccccc2)ccc1/C=C/C(=O)O` [(E)-3-[4-Benzyloxy-2-(decyloxy-hydroxy-phosphoryl)-phenyl]-acrylic acid] reads 4.5 µM.
